“Also recorded” adds a separate entry of the source. Marks after values point to notes of the source that are not given here.
System: stroke rats
Assay: Therapeutic effect in stroke rats (microthrombus injected into the brain, treated at once): Zealonga score and TTC infarction volume
Format: in vivo, SD male rats
Details: for Neural function scores: Zealonga method, 24 hours after awake, n = 9; for Percentage of infarction volume: cerebral infarction, TTC, n = 7
Method: SD male rats (280-300 g) were randomly divided to UK positive control group at a dose of 20000 IU/kg, blank control group with normal saline solution, compound control group with PAK at a dose of 5 μmol/kg, and compound 5Ak group at a dose of 1 μmol/kg (high), 0.1 μmol/kg (medium), and 0.01 μmol/kg (low). A 10% chloral hydrate solution (400 mg/kg) was injected intraperitoneally into rats for anesthesia. […] The 10 μl blood drawn was placed in a 1 mL EP vial and kept at RT for 30 min to allow the coagulation of blood and then transferred into a −20° C. refrigerator for 1 hour to allow the formation of solid coagulation. 1 hour later, the blood clots were taken out, 1 mL normal saline was added therein, and then the blood clots were broken into relatively uniform microthrombus by a steel spatula. The microthrombus suspension was then transferred into a 1 mL injector for use. […] The common jugular vein was separated, and then injected with UK at the dose of 20000 IU/kg, normal saline solution, or compound 5Ak at the dose of 1 μmol/kg. The vein was ligated. 3 drops of penicillin was dropped on the wound. The wound was sewed, and animals were waited for awake.
24 hours after the rats were awake, the degree of damage in neural function was evaluated by the Zealonga method. […] The evaluation results were statistically analyzed and subjected to t-test.
After the rats were awake for 24 hours and assessed for their degree of damage in neural function by Zealonga method, they were anesthetized with urethane followed by immediate decapitation and removal of the brain. Brain tissues were kept in a −20° C. refrigerator for 2 hours, and coronal sections of about 2 mm were successively sliced from the prefrontal end for a total of 5 sections and then placed into a 2% TTC solution to incubate without light at 37° C. for 30 min. The color change in brain sections was observed: normal brain tissues were stained red by TTC, while ischemic brain tissues appeared in white. Photographs were taken by using a digital camera and processed with image statistics software, and the volume of infarction in brain tissues and the area of normal brain tissues in the coronal sections were calculated. The ratio of the cerebral infarction volume of each group was statistically calculated and subject to t-test.

`C[C@H](NC(=O)[C@@H]1CCCN1)C(=O)N[C@@H](CCCCN)C(=O)NCCCC[C@H](NC(=O)[C@@H]1Cc2cc(O)c(O)cc2C(C)(C)N1)C(=O)O` [Compound 5Ak, 3S-6,7-dihydroxy-1,1-dimethyl-1,2,3,4-tetrahydro-isoquinoline-3-acyl-Lys(Pro-Ala-Lys)] was tested, and the “Therapeutic effect in stroke rats, result in words” value (5Ak 1, 0.1, 0.01 μmol/kg) was “effectively prevent the brain ischemia rats from occurrence of dyskinesia and cerebral infarction; also recorded: dose dependent”, the Neural function scores (5Ak 0.01 μmol/kg) was 2.30 ± 0.95^c and the Neural function scores (5Ak 0.1 μmol/kg) was 1.40 ± 1.07^b. For the same compound, the Neural function scores (5Ak 1 μmol/kg) was 1.10 ± 0.74^a, the “Percentage of infarction volume” value (5Ak 0.01 μmol/kg) was 18.05 ± 5.77^c % and the “Percentage of infarction volume” value (5Ak 0.1 μmol/kg) was 9.88 ± 2.52^b %. The “Percentage of infarction volume” value (5Ak 1 μmol/kg) was 3.44 ± 1.99^a %.
